In PubChem BioAssay (NCI):
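Each compound was tested at five concentrations against cells in 96-well plates for 48 hours. The concentration for full growth arrest is given as TGI.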

Tests used:
Experiment in all cases: NCI anticancer screen, dose series, 48 h
COLO 205 colon = system: COLO 205 colon
EKVX NSCLC = system: EKVX NSCLC
HCT-15 colon = system: HCT-15 colon
HOP-62 NSCLC = system: HOP-62 NSCLC
HOP-92 NSCLC = system: HOP-92 NSCLC
HT29 colon = system: HT29 colon
K-562 leukemia = system: K-562 leukemia
LOX IMVI melanoma = system: LOX IMVI melanoma
M14 melanoma = system: M14 melanoma
MALME-3M melanoma = system: MALME-3M melanoma
MDA-MB-435 = system: MDA-MB-435
NCI-H522 lung = system: NCI-H522 lung
NCI/ADR-RES ovarian = system: NCI/ADR-RES ovarian
SK-MEL-2 melanoma = system: SK-MEL-2 melanoma
SNB-19 CNS = system: SNB-19 CNS
SNB-75 CNS = system: SNB-75 CNS
SR leukemia = system: SR leukemia
SW-620 colon = system: SW-620 colon
UO-31 renal = system: UO-31 renal

SMILES: O=C(c1ccccc1)C(Nc1ccc2ccccc2c1)c1ccccc1 (centres undefined)
- TGI (COLO 205 colon): 33.7 µM
- TGI (EKVX NSCLC): > 100 µM
- TGI (HCT-15 colon): > 100 µM
- TGI (HOP-62 NSCLC): > 100 µM
- TGI (HOP-92 NSCLC): > 100 µM
- TGI (HT29 colon): > 100 µM
- TGI (K-562 leukemia): > 87.6 µM
- TGI (LOX IMVI melanoma): > 100 µM
- TGI (M14 melanoma): > 100 µM
- TGI (MALME-3M melanoma): > 94.8 µM
- TGI (MDA-MB-435): > 48 µM
- TGI (NCI-H522 lung): > 67.3 µM
- TGI (NCI/ADR-RES ovarian): > 100 µM
- TGI (SK-MEL-2 melanoma): 41.8 µM
- TGI (SNB-19 CNS): > 100 µM
- TGI (SNB-75 CNS): > 71.9 µM
- TGI (SR leukemia): > 71.8 µM
- TGI (SW-620 colon): > 100 µM
- TGI (UO-31 renal): > 100 µM
